# From US20250353859A1, “COMPOUNDS AS CCR6 INHIBITORS” (Hoffmann-La Roche Inc., priority 2023, published 2025)
# Biological target: T1, human CCR6 (Homo sapiens, UniProt P51684)
# T1 sequence (P51684 1-374): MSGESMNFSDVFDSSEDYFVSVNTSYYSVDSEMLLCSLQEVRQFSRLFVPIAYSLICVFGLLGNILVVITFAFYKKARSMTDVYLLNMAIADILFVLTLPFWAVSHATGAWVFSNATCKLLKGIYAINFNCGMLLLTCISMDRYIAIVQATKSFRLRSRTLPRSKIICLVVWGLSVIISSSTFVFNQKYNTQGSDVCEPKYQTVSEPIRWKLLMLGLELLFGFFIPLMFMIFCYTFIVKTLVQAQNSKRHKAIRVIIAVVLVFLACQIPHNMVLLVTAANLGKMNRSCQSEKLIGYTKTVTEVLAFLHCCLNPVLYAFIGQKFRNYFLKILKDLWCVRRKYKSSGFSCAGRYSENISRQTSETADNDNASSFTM
# Test: Human CCR6-CRE reporter assay
# Assay type: cell-based
# Parameters: The second construct contained the open reading frame of human CCR6 in the pUNO1 backbone; host or cells: 293FT cells (transient transfection with TransIT-293)
# Settings: 293FT cells transfected with human CCR6 and CRE-luciferase; Forskolin + CCL20, 5 h; relative Log IC50; read-out: CCR6-CRE reporter (converted)
# Procedure: 293FT cells were transfected with 2 constructs using TransIT-293 (Mirus). The first construct (pGL4.29, Promega) expressed the luciferase reporter gene luc2P in response to the binding of cAMP-induced CREB to the CREelement in its promoter. The second construct contained the open reading frame of human CCR6 in the pUNO1 backbone under the control of an enhanced CMV promoter(InVivoGen).48 h after transfection, cells were harvested and diluted to 750,000 cells/ml in culture medium (DMEM, 10% FBS, 1× pen/strep(Gibco 15140)). Compounds were 2.5-fold serially diluted in DMSO. Further dilutions were made in assay medium (DMEM, 10% FBS, 1× pen/strep, 6 μM Forskolin, 6 nM CCL20). 4 μl of the compound solution was added to a white MW384 plate, followed by […] of the cell suspension. Final DMSO concentration in the assay was 0.1%. The MW384 plate was placed in an incubator at 37° C., 5% CO2 for 5 h. Luciferase activity was determined by addition of 24 μl of a 2.5× diluted BriteLite luciferase solution(Perkin Elmer), followed by luminescence measurement using a VICTOR Plate reader (Perkin Elmer). […] The relative Log IC50 was determined with GraphPad Prism 9 using a four-parameter dose-response model.
row,IC50,Compound
1,316 nM,"N=S(=O)(c1ccc(-c2ccc3n[nH]c(=O)n3c2)cc1)[C@H]1CC[C@H](Nc2ccc(SC(F)(F)F)cc2)CC1 (stereo partly drawn) [Example 53, 6-(4-{[trans-4-({4-[(trifluoromethyl)sulfanyl]phenyl}Amino)cyclohexyl]sulfonimidoyl}phenyl)-2H,3H-[1,2,4]triazolo[4,3-a]pyridin-3-one]"
2,200 nM,"Cc1n[nH]c2ccc(-c3ccc(S(=O)(=O)N4CCC(Nc5ccc(OC(F)F)cc5)CC4)cc3)cc12 [Example 27, N-[4-(difluoromethoxy)phenyl]-1-[4-(3-methyl-1H-indazol-5-yl)benzenesulfonyl]piperidin-4-amine]"
3,2510 nM,"CC1CC(Nc2ccc(OC(F)(F)F)cc2)CCN1S(=O)(=O)c1ccc(-c2ccccc2)cc1 (centres unmarked) [Example 35, 1-{[1,1′-biphenyl]-4-sulfonyl}-2-methyl-N-[4-(trifluoromethoxy)phenyl]piperidin-4-amine]"
4,79.4 nM,"NC(=O)c1cccc(-c2ccc(S(=O)(=O)N3CCC(Nc4ccc(OC(F)(F)F)cn4)CC3)cc2)c1 [Example 9, 4′-[(4-{[5-(trifluoromethoxy)pyridin-2-yl]Amino}piperidin-1-yl)sulfonyl]-[1,1′-biphenyl]-3-carboxamide]"
5,100 nM,"CC(C)c1cnc2ccc(-c3ccc(S(=O)(=O)[C@H]4CC[C@H](Nc5cccc(SC(F)(F)F)c5)CC4)cc3)cn12 [Example 47, N-[trans-4-{4-[3-(propan-2-yl)imidazo[1,2-a]pyridin-6-yl]benzenesulfonyl}cyclohexyl]-3-[(trifluoromethyl)sulfanyl]aniline]"
6,100 nM,"N#Cc1ccc(-c2ccc(S(=O)(=O)[C@H]3CC[C@H](Nc4ccc(OC(F)(F)F)cc4)CC3)cc2)cc1 [Example 39, 4′-{[trans-4-{[4-(trifluoromethoxy)phenyl]Amino}cyclohexyl]sulfonyl}-[1,1′-biphenyl]-4-carbonitrile]"
7,63.1 nM,"Cc1cc(-c2ccc(S(=O)(=O)N3CCC(Nc4ccc(SC(F)(F)F)cn4)CC3)cc2)cn2c(C(C)C)cnc12 [Example 61, N-(1-{4-[8-methyl-3-(propan-2-yl)imidazo[1,2-a]pyridin-6-yl]benzenesulfonyl}piperidin-4-yl)-5-[(trifluoromethyl)sulfanyl]pyridin-2-amine]"
8,126 nM,"NC(=O)c1cccc(-c2ccc(S(=O)(=O)N3CCC(Nc4ccc(OC(F)(F)F)cc4)CC3)cc2)c1 [Example 5, 4′-[(4-{[4-(trifluoromethoxy)phenyl]Amino}piperidin-1-yl)sulfonyl]-[1,1′-biphenyl]-3-carboxamide]"
9,398 nM,"N#Cc1ccc(-c2ccc(S(=O)(=O)N3CCC(Nc4cccc(OC(F)F)c4)CC3)cc2)cc1 [Example 2, 4′-[(4-{[3-(difluoromethoxy)phenyl]Amino}piperidin-1-yl)sulfonyl]-[1,1′-biphenyl]-4-carbonitrile]"
10,3160 nM,"O=C1NCc2ccc(-c3ccc(S(=O)(=O)N4CCC(Nc5cccc(OC(F)(F)F)c5)CC4)cc3)cc21 [Example 10, 6-{4-[(4-{[3-(trifluoromethoxy)phenyl]Amino}piperidin-1-yl)sulfonyl]phenyl}-2,3-dihydro-1H-isoindol-1-one]"
11,126 nM,"O=S(=O)(c1ccc(-c2ccc3nccn3c2)cc1)[C@H]1CC[C@H](Nc2ccc(OC(F)(F)F)cn2)CC1 [Example 73, N-[trans-4-(4-{imidazo[1,2-a]pyridin-6-yl}benzenesulfonyl)cyclohexyl]-5-(trifluoromethoxy)pyridin-2-amine]"
12,631 nM,"N=S(=O)(c1ccc(-c2ccc3nccn3c2)cc1)[C@H]1CC[C@H](Nc2ccc(OC(F)(F)F)cn2)CC1 (stereo partly drawn) [Example 54, (4-{imidazo[1,2-a]pyridin-6-yl}phenyl)[trans-4-{[5-(trifluoromethoxy)pyridin-2-yl]Amino}cyclohexyl](imino)-λ^6-sulfanone]"
13,251 nM,"COCc1nnc2ccc(-c3ccc(S(=O)(=O)N4CCC(Nc5ccc(OC(F)(F)F)cc5)CC4)cc3)cn12 [Example 22, 1-{4-[3-(methoxymethyl)-[1,2,4]triazolo[4,3-a]pyridin-6-yl]benzenesulfonyl}-N-[4-(trifluoromethoxy)phenyl]piperidin-4-amine]"
14,158 nM,"N=S(=O)(c1ccc(-c2ccc3nccn3c2)cc1)[C@H]1CC[C@H](Nc2ccc(SC(F)(F)F)cc2)CC1 (stereo partly drawn) [Example 52, (4-{imidazo[1,2-a]pyridin-6-yl}phenyl)[trans-4-({4-[(trifluoromethyl)sulfanyl]phenyl}Amino)cyclohexyl](imino)-λ^6-sulfanone]"
15,251 nM,"CC1CC(Nc2ccc(OC(F)(F)F)cc2)CCN1S(=O)(=O)c1ccc(-c2ccc3c(c2)C(=O)NC3)cc1 (centres unmarked) [Example 37, 6-{4-[(2-methyl-4-{[4-(trifluoromethoxy)phenyl]Amino}piperidin-1-yl)sulfonyl]phenyl}-2,3-dihydro-1H-isoindol-1-one]"
16,398 nM,"CC1CC(Nc2ccc(OC(F)(F)F)cc2)CCN1S(=O)(=O)c1ccc(-c2ccc(C#N)cc2)cc1 (centres unmarked) [Example 36, 4′-[(2-methyl-4-{[4-(trifluoromethoxy)phenyl]Amino}piperidin-1-yl)sulfonyl]-[1,1′-biphenyl]-4-carbonitrile]"
17,126 nM,"CNC(=O)c1cccc(-c2ccc(S(=O)(=O)N3CCC(Nc4ccc(OC(F)(F)F)cc4)CC3C)cc2)c1 (centres unmarked) [Example 38, N-methyl-4′-[(2-methyl-4-{[4-(trifluoromethoxy)phenyl]Amino}piperidin-1-yl)sulfonyl]-[1,1′-biphenyl]-3-carboxamide]"
18,79.4 nM,"Cc1cc(-c2ccc(S(=O)(=O)[C@H]3CC[C@H](Nc4ccc(SC(F)(F)F)cc4)CC3)cc2)cn2c(C(C)C)cnc12 [Example 48, N-[trans-4-{4-[8-methyl-3-(propan-2-yl)imidazo[1,2-a]pyridin-6-yl]benzenesulfonyl}cyclohexyl]-4-[(trifluoromethyl)sulfanyl]aniline]"
19,31.6 nM,"CC(C)c1nnc2ccc(-c3ccc(S(=O)(=O)N4CCC(Nc5ccc(OC(F)(F)F)cn5)CC4)cc3)cn12 [Example 56, N-(1-{4-[3-(propan-2-yl)-[1,2,4]triazolo[4,3-a]pyridin-6-yl]benzenesulfonyl}piperidin-4-yl)-5-(trifluoromethoxy)pyridin-2-amine]"
20,200 nM,"N#Cc1ccc(-c2ccc(S(=O)(=O)N3CCC(Nc4ccc(OC(F)(F)F)cn4)CC3)cc2)cc1 [Example 7, 4′-[(4-{[5-(trifluoromethoxy)pyridin-2-yl]Amino}piperidin-1-yl)sulfonyl]-[1,1′-biphenyl]-4-carbonitrile]"
21,39.8 nM,"CC(C)c1cnc2ccc(-c3ccc(S(=O)(=O)N4CCC(Nc5ccc(SC(F)(F)F)cn5)CC4)cc3)cn12 [Example 64, N-(1-{4-[3-(propan-2-yl)imidazo[1,2-a]pyridin-6-yl]benzenesulfonyl}piperidin-4-yl)-5-[(trifluoromethyl)sulfanyl]pyridin-2-amine]"
22,63.1 nM,"NC(=O)c1cc(-c2ccc(S(=O)(=O)N3CCC(Nc4ccc(SC(F)(F)F)cc4)CC3)cc2)ccn1 [Example 34, 4-(4-{[4-({4-[(trifluoromethyl)sulfanyl]phenyl}Amino)piperidin-1-yl]sulfonyl}phenyl)pyridine-2-carboxamide]"
23,1000 nM,"Cc1cc(-c2ccc(S(=O)(=O)N3CCC(Nc4cc(OC(F)(F)F)ccn4)CC3)cc2)cn2c(C(C)C)nnc12 [Example 71, N-(1-{4-[8-methyl-3-(propan-2-yl)-[1,2,4]triazolo[4,3-a]pyridin-6-yl]benzenesulfonyl}piperidin-4-yl)-4-(trifluoromethoxy)pyridin-2-amine]"

# Same assay, conditions: scaffold variant X = O, R1 = CF3; read-out: Activity in human CCR6-CRE reporter assay
row,IC50,Compound
1,62 nM,"NC(=O)c1cc(-c2ccc(S(=O)(=O)N3CCC(Nc4ccc(OC(F)(F)F)cn4)CC3)cc2)ccn1 [Example 58, 4-{4-[(4-{[5-(trifluoromethoxy)pyridin-2-yl]amino}piperidin-1-yl)sulfonyl]phenyl}pyridine-2-carboxamide]"
2,150 nM,"O=S(=O)(c1ccc(-c2ccc3nccn3c2)cc1)N1CCC(Nc2ccc(OC(F)(F)F)cn2)CC1 [Example 12, N-[1-(4-{imidazo[1,2-a]pyridin-6-yl}benzenesulfonyl)piperidin-4-yl]-5-(trifluoromethoxy)pyridin-2-amine]"

# Same assay, conditions: scaffold variant X = S, R1 = CF3; read-out: Activity in human CCR6-CRE reporter assay
row,IC50,Compound
1,50 nM,"O=S(=O)(c1ccc(-c2ccc3nccn3c2)cc1)N1CCC(Nc2ccc(SC(F)(F)F)cn2)CC1 [Example 62, N-[1-(4-{imidazo[1,2-a]pyridin-6-yl}benzenesulfonyl)piperidin-4-yl]-5-[(trifluoromethyl)sulfanyl]pyridin-2-amine]"
